Drawing on PubChem BioAssay AID256 (DTP/NCI, 2004), this text covers T/C for 16 compounds.

Molecules are shown by their SMILES. Several values for one entry are separate records, joined by “and”; a condition that tells them apart may be missing. Equal values may be shown once. Toxic doses and inconclusive results are not listed.

This assay relates to CD2F1 mice, L1210 leukemia ip, survival T/C. Kind of assay: NCI In Vivo Anticancer Drug Screen. Data for tumor model L1210 Leukemia (intraperitoneal) in CD2F1 (CDF1) mice. To be noted: higher = longer survival. Here is the method: The antitumor activity of compounds was measured in mice bearing transplantable tumors. Survival or tumor size were measured and the results are expressed as the measurement made in the treated group (T) divided by the measurement made in the vehicle treated control group (C). The tumor model used in this assay is L1210 Leukemia (intraperitoneal) in CD2F1 (CDF1) mice

[1] abbreviates: endpoint: mean survival time, dose: 50.0 mg/kg/injection, schedule: Q01DX009 (ip), vehicle: saline with Tween-80.
The mark [2] stands for this setting: endpoint: mean survival time, dose: 100.0 mg/kg/injection, schedule: Q01DX001 (ip), vehicle: saline with Tween-80.
[3] abbreviates: endpoint: mean survival time, dose: 100.0 mg/kg/injection, schedule: Q01DX009 (ip), vehicle: saline with Tween-80.
Where [4] appears, read: endpoint: mean survival time, dose: 200.0 mg/kg/injection, schedule: Q01DX001 (ip), vehicle: saline with Tween-80.
[5] abbreviates: endpoint: mean survival time, dose: 12.5 mg/kg/injection, schedule: Q01DX009 (ip), vehicle: Klucel (hydroxypropylcellulose) (HPC).
Setting [6] is: endpoint: mean survival time, dose: 25.0 mg/kg/injection, schedule: Q01DX009 (ip), vehicle: Klucel (hydroxypropylcellulose) (HPC).
Where [7] appears, read: endpoint: mean survival time, dose: 50.0 mg/kg/injection, schedule: Q01DX009 (ip), vehicle: Klucel (hydroxypropylcellulose) (HPC).
Where [8] appears, read: endpoint: mean survival time, dose: 100.0 mg/kg/injection, schedule: Q01DX009 (ip), vehicle: Klucel (hydroxypropylcellulose) (HPC).
The mark [9] stands for this setting: endpoint: mean survival time, dose: 100.0 mg/kg/injection, schedule: Q04DX003 (ip), vehicle: Klucel (hydroxypropylcellulose) (HPC).
Setting [10] is: endpoint: mean survival time, dose: 200.0 mg/kg/injection, schedule: Q04DX003 (ip), vehicle: Klucel (hydroxypropylcellulose) (HPC).
Where [11] appears, read: endpoint: mean survival time, dose: 6.25 mg/kg/injection, schedule: Q01DX009 (ip), vehicle: saline with Tween-80.
Where [12] appears, read: endpoint: mean survival time, dose: 200.0 mg/kg/injection, schedule: Q01DX009 (ip), vehicle: saline with Tween-80.

Take `S=c1nc[nH]c2nc[nH]c12.[W]`: the T/C (endpoint: median survival time, dose: 60.0 mg/kg/injection, schedule: Q01DX009 (ip), vehicle: water) is 151 % of control (2×) and 169 % of control; the T/C (endpoint: median survival time, dose: 60.0 mg/kg/injection, schedule: Q## X009 (ip), vehicle: water) is 169 % of control; the T/C (endpoint: median survival time, dose: 80.0 mg/kg/injection, schedule: Q01DX009 (ip), vehicle: water) was 164 % of control and 167 % of control (2×); the T/C (endpoint: median survival time, dose: 80.0 mg/kg/injection, schedule: Q## X009 (ip), vehicle: water) was 164 % of control; the T/C (endpoint: median survival time, dose: 100.0 mg/kg/injection, schedule: Q01DX009 (ip), vehicle: water) is 154 % of control; the T/C (endpoint: median survival time, dose: 100.0 mg/kg/injection, schedule: Q01DX009 (other), vehicle: water) is 154 % of control. The T/C (endpoint: median survival time, dose: 120.0 mg/kg/injection, schedule: Q01DX009 (ip), vehicle: water) was 158 % of control (2×) and 164 % of control; the T/C (endpoint: median survival time, dose: 120.0 mg/kg/injection, schedule: Q01DX009 (other), vehicle: water) is 164 % of control; the T/C (endpoint: median survival time, dose: 140.0 mg/kg/injection, schedule: Q01DX009 (ip), vehicle: water) was 163 % of control; the T/C (endpoint: median survival time, dose: 140.0 mg/kg/injection, schedule: Q## X009 (ip), vehicle: water) is 163 % of control; the T/C (endpoint: median survival time, dose: 160.0 mg/kg/injection, schedule: Q01DX009 (ip), vehicle: water) is 164 % of control; the T/C (endpoint: median survival time, dose: 160.0 mg/kg/injection, schedule: Q01DX009 (other), vehicle: water) is 164 % of control.
`COC(C(OC)N1CCOCC1)N1CCOCC1` (stereo unspecified): the T/C runs as follows: (endpoint: mean survival time, dose: 100.0 mg/kg/injection, schedule: Q04DX003 (ip), vehicle: saline with Tween-80) 89 % of control; (endpoint: mean survival time, dose: 200.0 mg/kg/injection, schedule: Q04DX003 (ip), vehicle: saline with Tween-80) 89 % of control.
As for `COC(=O)C[C@](O)(CCC(C)(C)O)C(=O)O[C@@H]1C(OC)=C[C@]23CCCN2CCc2cc4c(cc2[C@H]13)OCO4`, the T/C (endpoint: median survival time, dose: 0.06 mg/kg/injection, schedule: Q01DX009 (ip), vehicle: saline) was 120 % of control; the T/C (endpoint: median survival time, dose: 0.12 mg/kg/injection, schedule: Q01DX009 (ip), vehicle: saline) is 119 % of control; the T/C (endpoint: median survival time, dose: 0.25 mg/kg/injection, schedule: Q01DX009 (ip), vehicle: saline) is 120 % of control; the T/C (endpoint: median survival time, dose: 0.5 mg/kg/injection, schedule: Q01DX009 (ip), vehicle: saline) was 118 % of control and 120 % of control; the T/C (endpoint: median survival time, dose: 4.0 mg/kg/injection, schedule: Q01DX009 (ip), vehicle: saline) is 153 % of control.
Turning to `CC(=O)Nc1ccc(S(=O)(=O)/N=C2\C=CC(=O)c3ccccc32)cc1`, the T/C under setting [1] is 98 % of control, the T/C under setting [2] is 104 % of control, the T/C under setting [3] was 100 % of control and the T/C under setting [4] is 111 % of control.
`CCCCn1c(C)nc2c(N)cc(C(F)(F)F)cc21`: the T/C reads like this: under setting [5], 100 % of control; (endpoint: mean survival time, dose: 25.0 mg/kg/injection, schedule: Q01DX001 (ip), vehicle: Klucel (hydroxypropylcellulose) (HPC)) 96 % of control; under setting [6], 91 % of control; (endpoint: mean survival time, dose: 25.0 mg/kg/injection, schedule: Q04DX003 (ip), vehicle: Klucel (hydroxypropylcellulose) (HPC)) 96 % of control; (endpoint: mean survival time, dose: 50.0 mg/kg/injection, schedule: Q01DX001 (ip), vehicle: Klucel (hydroxypropylcellulose) (HPC)) 102 % of control; under setting [7], 100 % of control. The T/C reads like this: (endpoint: mean survival time, dose: 50.0 mg/kg/injection, schedule: Q04DX003 (ip), vehicle: Klucel (hydroxypropylcellulose) (HPC)) 100 % of control; (endpoint: mean survival time, dose: 100.0 mg/kg/injection, schedule: Q01DX001 (ip), vehicle: Klucel (hydroxypropylcellulose) (HPC)) 97 % of control; under setting [8], 102 % of control; under setting [9], 93 % of control; (endpoint: mean survival time, dose: 200.0 mg/kg/injection, schedule: Q01DX001 (ip), vehicle: Klucel (hydroxypropylcellulose) (HPC)) 94 % of control; under setting [10], 100 % of control.
As for `C=C(C)CCCC(C)C(O)C=O` (stereo unspecified), the T/C is, setting by setting: (endpoint: mean survival time, dose: 100.0 mg/kg/injection, schedule: Q01DX001 (ip), vehicle: saline) 98 % of control; (endpoint: mean survival time, dose: 200.0 mg/kg/injection, schedule: Q01DX001 (ip), vehicle: saline) 95 % of control; (endpoint: mean survival time, dose: 400.0 mg/kg/injection, schedule: Q01DX001 (ip), vehicle: saline) 95 % of control.
`[Cl][Pt+2][Cl].[NH-]CC1(C[NH-])CCCCC1`: the T/C (endpoint: mean survival time, dose: 25.0 mg/kg/injection, schedule: Q04DX003 (ip), vehicle: saline) was 95 % of control.
Consider `COc1cccc2c1C(=O)c1c(O)c3c(c(O)c1C2=O)C[C@@](O)(C(=O)CO)C[C@@H]3OC1CC(N)CC(C)O1` (stereo partly specified), for which the T/C runs as follows: (endpoint: median survival time, dose: 0.75 mg/kg/injection, schedule: Q01DX009 (ip), vehicle: water) 154 % of control; (endpoint: median survival time, dose: 1.5 mg/kg/injection, schedule: Q01DX009 (ip), vehicle: water) 200 % of control; (endpoint: median survival time, dose: 3.0 mg/kg/injection, schedule: Q01DX009 (ip), vehicle: water) 108 % of control.
With `Nc1nc(N)c2cc(CCc3ccccc3)ccc2n1`, the T/C was 105 % of control under setting [11]; 98 % of control (endpoint: mean survival time, dose: 6.25 mg/kg/injection, schedule: Q04DX003 (ip), vehicle: saline with Tween-80); 100 % of control (endpoint: mean survival time, dose: 12.5 mg/kg/injection, schedule: Q01DX009 (ip), vehicle: saline with Tween-80); 98 % of control (endpoint: mean survival time, dose: 12.5 mg/kg/injection, schedule: Q04DX003 (ip), vehicle: saline with Tween-80); 104 % of control (endpoint: mean survival time, dose: 25.0 mg/kg/injection, schedule: Q01DX009 (ip), vehicle: saline with Tween-80); 98 % of control (endpoint: mean survival time, dose: 25.0 mg/kg/injection, schedule: Q04DX003 (ip), vehicle: saline with Tween-80). Besides, under setting [7], the T/C is 106 % of control.
For the compound `CC1=CCC(c2ccccc2)NC(=O)C1` (stereo unspecified), the T/C runs as follows: (endpoint: mean survival time, dose: 100.0 mg/kg/injection, schedule: Q04DX002 (ip), vehicle: saline with Tween-80) 96 % of control; (endpoint: mean survival time, dose: 200.0 mg/kg/injection, schedule: Q04DX002 (ip), vehicle: saline with Tween-80) 104 % of control; (endpoint: mean survival time, dose: 400.0 mg/kg/injection, schedule: Q04DX002 (ip), vehicle: saline with Tween-80) 104 % of control.
Consider `C/C(=N/O)c1cc(CN(C)C)oc1C`, for which the T/C reads like this: under setting [1], 92 % of control; under setting [2], 113 % of control; under setting [3], 90 % of control; under setting [4], 101 % of control; under setting [12], 91 % of control.
In the case of `N#CCN1CCc2ccccc2C1`, the T/C is 94 % of control under setting [9] and 94 % of control under setting [10].
On to `C=C[CH2][Sn]([Br])([c]1ccccc1)[c]1ccccc1`, for which the T/C is 94 % of control under setting [11] and 89 % of control (endpoint: mean survival time, dose: 25.0 mg/kg/injection, schedule: Q04DX002 (ip), vehicle: saline with Tween-80).
As for `CC(C)OC(=S)S.[Pt]`, the T/C by setting is: (endpoint: mean survival time, dose: 11.3 mg/kg/injection, schedule: Q04DX003 (ip), vehicle: saline with Tween-80) 89 % of control; (endpoint: mean survival time, dose: 22.5 mg/kg/injection, schedule: Q04DX003 (ip), vehicle: saline with Tween-80) 97 % of control; (endpoint: mean survival time, dose: 45.0 mg/kg/injection, schedule: Q04DX003 (ip), vehicle: saline with Tween-80) 101 % of control; (endpoint: mean survival time, dose: 90.0 mg/kg/injection, schedule: Q04DX003 (ip), vehicle: saline with Tween-80) 97 % of control; (endpoint: mean survival time, dose: 180.0 mg/kg/injection, schedule: Q04DX003 (ip), vehicle: saline with Tween-80) 95 % of control.
As to `COc1cc(Cl)ccc1NC(=O)Oc1c(Cl)cccc1Cl`, the T/C under setting [1] is 104 % of control, the T/C under setting [3] was 100 % of control and the T/C under setting [12] was 100 % of control.
With `CCCC(=O)OCc1cc(=O)n(C)c2c3c4c(cc12)c(C)cc(=O)n4CO3`, the T/C reads like this: (endpoint: mean survival time, dose: 1.56 mg/kg/injection, schedule: Q01DX009 (ip), vehicle: Klucel (hydroxypropylcellulose) (HPC)) 97 % of control; (endpoint: mean survival time, dose: 3.12 mg/kg/injection, schedule: Q01DX009 (ip), vehicle: Klucel (hydroxypropylcellulose) (HPC)) 106 % of control and 112 % of control; (endpoint: mean survival time, dose: 6.25 mg/kg/injection, schedule: Q01DX009 (ip), vehicle: Klucel (hydroxypropylcellulose) (HPC)) 116 % of control and 105 % of control and 109 % of control; under setting [5], 113 % of control and 107 % of control and 110 % of control; under setting [6], 117 % of control and 119 % of control and 124 % of control; under setting [7], 118 % of control and 124 % of control. The T/C under setting [8] is 96 % of control.
